Read-outs that look alike come from different tables or passages of the source.
How the values were obtained:
[1] = Particle size distribution (Sympatec HELOS, dry dispersion); format: physicochemical
Source text: Particle Size Distribution:
Sympatec HELOS (H0445), dry dispersion system (RODOS), pressure 2 bar

[2] = Active ingredient release from 1 mg capsule / 1 mg tablet; format: physicochemical; details: micronized J956, 0.3% SDS in water
Protocol: The release values were compared in a test medium, which comprises 0.3% SDS in water, with paddle stirring, 100 rpm.
Active Ingredient Release:
Active ingredient release measured in 1000 mL water with 0.3% sodium dodecyl sulfate, 100 rpm
Content Determination by HPLC with external calibration
(§1) Column: LiChrosphere 5μ RP-18 encapped, 150×3 mm
(§2) Eluent: acetonitrile/water=45/55

[3] = micronized J956
Source text: Content Determination according to USP/Ph. Eur. for individual capsules after elution through HPLC with external calibration
as §1, §2

[4] = Example 7, primary particle size
[5] = Example 4, primary particle size
[6] = Example 6, primary particle size

C[C@]1(O)CC[C@H]2[C@@H]3CCC4=CC(=O)CC[C@@H]4[C@H]3CC[C@@]21C [methylnortestosterone, reference compound]
Particle size X10 [1, 4]: 1.32 μm
Particle size X50 [1, 4]: 3.96 μm
Particle size X99 [1, 4]: 14 μm
Particle size X100 [1, 4]: 18 μm
Particle size X10 ([1]; Example 7, spray-dried): 1.36 μm
Particle size X50 ([1]; Example 7, spray-dried): 3.94 μm
Particle size X99 ([1]; Example 7, spray-dried): 14 μm
Particle size X100 ([1]; Example 7, spray-dried): 18 μm

CCCCCCCCCCC(=O)O[C@H]1CC[C@H]2[C@@H]3CCC4=CC(=O)CC[C@]4(C)[C@H]3CC[C@]12C [testosterone undecanoate, reference compound]
Particle size X10 ([1]; Example 4, 1st cycle): 17 μm
Particle size X50 ([1]; Example 4, 1st cycle): 41 μm
Particle size X99 ([1]; Example 4, 1st cycle): 100 μm
Particle size X100 ([1]; Example 4, 1st cycle): 120 μm
Particle size X10 [1, 5]: 6 μm
Particle size X50 [1, 5]: 21 μm
Particle size X99 [1, 5]: 100 μm
Particle size X100 [1, 5]: 120 μm

CCNC(=O)ON=Cc1ccc(C2CC3(C)C(CCC3(COC)OC)C3CCC4=CC(=O)CCC4=C23)cc1 (stereo not drawn) [Micronizate, 11β-{4-[(ethylaminocarbonyl)oximinomethyl]phenyl}-17β-methoxy-17α-methoxymethyl-estra-4,9-dien-3-one, reference compound]
RELEASE in % ([2]; 1 mg capsule, 0 min, paddle 100 rpm): 0%
RELEASE in % ([2]; 1 mg capsule, 10 min, paddle 100 rpm): 92.1%
RELEASE in % ([2]; 1 mg capsule, 20 min, paddle 100 rpm): 94.3%
RELEASE in % ([2]; 1 mg capsule, 30 min, paddle 100 rpm): 94.6%
RELEASE in % ([2]; 1 mg capsule, 45 min, paddle 100 rpm): 94.9%
RELEASE in % ([2]; 1 mg tablet, 0 min, paddle, 100 rpm): 0%
RELEASE in % ([2]; 1 mg tablet, 10 min, paddle, 100 rpm): 92.1%
RELEASE in % ([2]; 1 mg tablet, 20 min, paddle, 100 rpm): 94.3%
RELEASE in % ([2]; 1 mg tablet, 30 min, paddle, 100 rpm): 94.6%
RELEASE in % ([2]; 1 mg tablet, 45 min, paddle, 100 rpm): 94.9%
CUT value spread: Confidence Interval % ([3]; 1 mg capsule): 1.72%
CUT value spread: RSD, % ([3]; 1 mg capsule): 2.56%
CUT value spread: Confidence Interval % ([3]; 1 mg tablet): 1.72%
CUT value spread: RSD, % ([3]; 1 mg tablet): 2.56%

C#C[C@]1(OC(C)=O)CC[C@H]2[C@@H]3CCC4=CC(=O)CC[C@@H]4[C@H]3CC[C@@]21C [norethisterone acetate, reference compound]
Particle size X10 ([1]; Example 6, end): 8.5 μm
Particle size X50 ([1]; Example 6, end): 30.4 μm
Particle size X99 ([1]; Example 6, end): 87 μm
Particle size X100 ([1]; Example 6, end): 100 μm
Particle size X10 [1, 6]: 4 μm
Particle size X50 [1, 6]: 14 μm
Particle size X99 [1, 6]: 55 μm
Particle size X100 [1, 6]: 87 μm

Source: US20030215516A1, “Process for production of crystals of a medicinally effective ingredient, crystals obtained thereby and pharmaceutical preparations containing them” (priority 2002, published 2003)
